Test results: patent publication US8614068B2, “Process for producing hepcidin” (Hellenic Pasteur Institute, priority 2007, dated 2013)
“Also recorded” adds a separate entry of the source.

Experiments:
[1] = biological target: T1, ferroportin (FPN1) (Mus musculus, UniProt Q9JHI9); assay: Western blot of ferroportin expression in macrophages; format: cell-based, murine
T1 construct: endogenous in cells; host or cells: RAW 264.7 murine macrophages
T1 sequence (Q9JHI9 1-570): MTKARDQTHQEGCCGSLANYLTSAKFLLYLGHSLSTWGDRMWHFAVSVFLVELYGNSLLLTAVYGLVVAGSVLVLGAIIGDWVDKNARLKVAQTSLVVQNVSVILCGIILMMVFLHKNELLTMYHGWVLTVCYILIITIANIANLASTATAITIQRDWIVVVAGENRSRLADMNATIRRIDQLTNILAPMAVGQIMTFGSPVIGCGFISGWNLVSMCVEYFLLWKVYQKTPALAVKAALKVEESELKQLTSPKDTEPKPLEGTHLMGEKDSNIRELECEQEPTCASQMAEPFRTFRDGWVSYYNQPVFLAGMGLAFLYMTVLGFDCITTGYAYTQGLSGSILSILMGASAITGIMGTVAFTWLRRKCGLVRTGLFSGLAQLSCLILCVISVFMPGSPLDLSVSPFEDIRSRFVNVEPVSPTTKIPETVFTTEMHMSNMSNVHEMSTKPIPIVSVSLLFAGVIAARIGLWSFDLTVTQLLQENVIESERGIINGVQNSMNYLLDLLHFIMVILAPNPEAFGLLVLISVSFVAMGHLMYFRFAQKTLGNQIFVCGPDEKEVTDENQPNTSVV
Description: (§1) A, RAW 264.7 macrophages were treated with 11 μM and 10 μM of synthetic hepcidin-25 (having the sequence of SEQ ID NO. 2) and Hep-25His (having the sequence of SEQ ID NO. 6) for 4 h at 37° C. or with PBS as negative control. Cell lysates were subjected to 8% SDS PAGE and Western Blot with antibodies against TfR1, Ferroportin and actin as loading control. B, The signal density of ferroportin, TfR1 and actin protein bands from two independent experiments were quantified by densitometry and their intensity relative to actin was calculated. […] Hep25-His, negative peptide and PBS was incubated with Raw 264.7 macrophages, followed by cross-linking with DSS. Cell lysates were incubated with Ni2-NTA and eluates were analyzed by Western blot using anti-FPN1 Ab. […] HEK293-Fpn cells were induced with ponasterone for 24 h and then treated with Hep25-His or synthetic hepcidin 25 (s. Hep25) for 3 h. Fluorescence was visualized with a Leica TCS confocal microscope.
Western blotting—1×10^6 cells (RAW 264.7, THP-1 or J774) were plated in […] plates and after 12-20 h cells were treated with hepcidins in serum-free DMEM for 4 h, at 37° C. Afterwards, cells were re-suspended in lysis buffer (1% Triton, 25 mM Hepes pH 7.4, 150 mM NaCl, 10% Glycerol, 5 mM EDTA, 0.5 mM PMSF, protein inhibitors (Roche, Mannheim, Germany) and quantified by Bradford assay (Biorad, Hercules, Calif.). 30 μg of cell lysate was analyzed on 8% SDS-PAGE. Proteins were transferred to Hybond C nitrocellulose membrane (Amersham Biosciences, Piscataway, N.J.) and the membranes were incubated with the primary antibodies rabbit anti-ferroportin (Alpha Diagnostics, San Antonio, Tex.), mouse anti-TfR1 (Zymed, Invitrogen, Carlsbad, Calif.) and mouse anti-β actin (Santa Cruz Biotech, Santa Cruz, Calif.), in a dilution of 1:1000, overnight at 4° C. After washing, the membranes were incubated with anti-rabbit and anti-mouse secondary antibodies conjugated with HRP, in a dilution of 1:5000 (DakoCytomation, Carpinteria, Calif.), for 1 h at room temperature. Specific signal was detected with a chemiluminescence assay kit (ECL, Amersham Biosciences, Piscataway, N.J.). The bands were quantified by densitometry using the Quantity-One (Biorad, Hercules, Calif.) software. Data are shown as means±SD. Statistical analysis was performed by student t-Test.

[2] = biological target: T1, ferroportin (FPN1); assay: Cross-linking and pull-down assay; format: binding, murine; settings: RAW 264.7, 10 nM, cross-linking with DSS, Ni2-NTA pull-down, anti-ferroportin Western blot
Description: as §1, with “calculated. Data are expressed as mean of ratios of TfR1 or to actin levels ±S.D. for each experimental condition. *p<0.01.” for “calculated.”
Disuccinimidyl suberate (DSS, Pierce, Rockford, Ill.) was added for 20 min at room temperature, followed by quenching with 20 mM TriseHCl pH 7.4 for 20 min. […] Bound proteins were eluted with 1 M imidazole and analyzed by Western blot using anti-FPN1 antibody as described above. […]

[3] = test system: E. coli strain ML35; settings: at 30 μM
Description: Antimicrobial activity of recombinant tagged hepcidins. E. coli strain ML35 was subjected to CFU assay in order to determine the antimicrobial activity of synthetic hepcidin 25 (s. Hep25) having the sequence os SEQ ID NO. 2, Hep-25His having the sequence of SEQ ID NO. 6, Hep-25MycHis having the sequence of SEQ ID NO. 8, Hep-20MycHis having the sequence of SEQ ID NO. 7 and negative peptide having the sequence SEQ ID NO. 9 at the concentrations indicated for 2 h at 37° C. Sodium phosphate buffer was used as negative control.
Antimicrobial assay—All purified recombinant hepcidins were tested for antibacterial activity against E. coli ML35 and BL21(DE) is a CFU assay (Porter E. M., van Dam E., Valore E. V., Ganz T., Broad-spectrum antimicrobial activity of human intestinal defensin 5, Infect. Immun. 65 (1997) 2396-2401.). Bacterial cell cultures were grown to OD600=0.2 (5×10^7 cfu/ml) and resuspended to a final concentration of 10^6 cfu/ml in 20mM sodium phosphate buffer, pH7.4. Various concentrations of peptides were added to a final volume of 100 μl and after incubation for 2 h at 37° C., surviving cells were plated in triplicates to LB/agar plates.
Antimicrobial activity of recombinant hepcidins—The colony forming unit assay (E. M. Porter, E. van Dam, E. V. Valore, T. Ganz, Broad-spectrum antimicrobial activity of human intestinal defensin 5, Infect. Immun. 65 (1997) 2396-2401) was used to determine the antimicrobial activity of the purified recombinant hepcidin forms against the E. coli strain, ML35. […] Surviving microbes were counted following incubation with various concentrations of recombinant hepcidin preparations, synthetic hepcidin or negative peptide for 2 h at 37° C.

[4] = biological target: T1, ferroportin (FPN1); assay: Western blot of ferroportin expression in macrophages; format: cell-based, murine; settings: RAW 264.7, 1 μM, 4 h at 37° C.

## hepcidin-25His [Hep-25His]
[1]; RAW 264.7, 10 μM, 4 h at 37° C.
  reduction of FPN1 in comparison to untreated cells: 48±3%
[1]; RAW 264.7 macrophages
  decrease in ferroportin levels: ~50%
[1]; concentrations higher than 10 μM, data not shown
  effect of higher concentrations on FPN1 and TfR1: did not have a stronger effect
[2]
  specific binding to FPN1: binds specifically to FPN1; also recorded: binds specifically to FPNI
[2]; listed as recombinant peptide
  specific binding to FPN1: can specifically bind to its receptor (ferroportin)
[3]
  reduction of the number of surviving bacteria: 1000 fold
[4]
  reduction of FPN1 in comparison to untreated cells: 37%±7
